Experiments:
rat [1] = conditions: Multigenerational reproductive toxicity study, sprague dawley, Oral, Water, dose end: 2 generation
mouse [2] = conditions: Carcinogenicity, b6c3f1, Oral, Water, dose end: 103 week, group: systemic
rat [3] = conditions: Carcinogenicity, fischer, Oral, Water, dose end: 103 week, group: systemic
mouse [4] = conditions: Prenatal developmental toxicity study, cd1, Oral, Gavage/Intubation, dose end: 15 GD
rat [5] = conditions: Fertility (Segment I), Oral, Gavage/Intubation, dose end: 6 GD
rat [6] = conditions: Fertility (Segment I); sprague dawley; Oral; Gavage/Intubation; dose end: 63 day; group: parental; systemic / in life observation / body weight / body weight + systemic / in life observation / body weight / body weight gain + systemic / in…
rat [7] = conditions: Sub-acute repeat dose toxicity, sprague dawley, Oral, Gavage/Intubation, dose end: 1 month, group: systemic
[8] = group: offspring, developmental / developmental landmark / preputial separation / preputial separation + systemic / in life observation / body weight / …
[9] = group: parental, systemic / in life observation / body weight / body weight + systemic / in life observation / body weight / body weight gain + systemic / in…
[10] = group: parental, systemic / in life observation / clinical signs / red or crusty deposits around eyes, ears, nose, or mouth + systemic / in life observation…
[11] = group: reproductive, reproductive / offspring survival early / dead fetuses / dead fetuses
[12] = systemic / in life observation / body weight / body weight + systemic / in life observation / water consumption / water consumption
[13] = systemic / pathology microscopic / uterus / interstitial stromal tumor + systemic / in life observation / body weight / body weight + …
[14] = systemic / in life observation / body weight / body weight + systemic / in life observation / water consumption / water consumption + …
[15] = systemic / pathology microscopic / adrenal gland / pheochromocytoma nos + systemic / pathology microscopic / bone marrow / leukemia + …
[16] = group: developmental, developmental / developmental malformation / mouth / jaw / cleft palate + systemic / in life observation / body weight / fetal weight
[17] = group: maternal, systemic / in life observation / body weight / body weight + systemic / in life observation / body weight / body weight gain + systemic / in…
[18] = group: developmental, developmental / developmental malformation / bladder / [other]
[19] = group: parental, systemic / in life observation / body weight / body weight
[20] = systemic / hematology / hemoglobin distribution width (hdw) / hemoglobin distribution width (hdw) + systemic / hematology / platelet / …

`Oc1ccccc1` [Phenol] was tested, and the LEL (rat [1]; [8]) was 318 mg/kg/day, the LOAEL (rat [1]; [8]) was over 318 mg/kg/day and the NEL (rat [1]; [8]) was 69.8 mg/kg/day. The NOAEL (rat [1]; [8]) was at least 318 mg/kg/day, the LOAEL (rat [1]; [9]) was over 301 mg/kg/day and the NOAEL (rat [1]; [9]) was at least 301 mg/kg/day. It also gave an LEL (rat [1]; [10]) of 13.5 mg/kg/day, an NEL (rat [1]; [10]) of under 13.5 mg/kg/day and an LEL (rat [1]; [11]) of 318 mg/kg/day. It also gave an LOAEL (rat [1]; [11]) of over 318 mg/kg/day, an NEL (rat [1]; [11]) of 69.8 mg/kg/day and an NOAEL (rat [1]; [11]) of at least 318 mg/kg/day. The LEL (mouse [2]; [12]) was 375 mg/kg/day, the NEL (mouse [2]; [12]) was under 375 mg/kg/day and the LOAEL (mouse [2]; [13]) was over 750 mg/kg/day. It also gave an NOAEL (mouse [2]; [13]) of at least 750 mg/kg/day, an LOAEL (rat [3]; [14]) of over 250 mg/kg/day and an NOAEL (rat [3]; [14]) of at least 250 mg/kg/day. For the same compound, the LEL (rat [3]; [15]) was 125 mg/kg/day, the NEL (rat [3]; [15]) was under 125 mg/kg/day and the LEL (mouse [4]; [16]) was 280 mg/kg/day. The LOAEL (mouse [4]; [16]) was over 280 mg/kg/day, the NEL (mouse [4]; [16]) was 140 mg/kg/day and the NOAEL (mouse [4]; [16]) was at least 280 mg/kg/day. It also gave an LEL (mouse [4]; [17]) of 280 mg/kg/day, an LOAEL (mouse [4]; [17]) of over 280 mg/kg/day and an NEL (mouse [4]; [17]) of 140 mg/kg/day. For the same compound, the NOAEL (mouse [4]; [17]) was at least 280 mg/kg/day.

For `CCN1CCC2(CC1)COc1cc3c(cc12)N(C(=O)c1ccc(-c2ccc(-c4nnc(C)o4)cc2C)cc1)CC3.Cl`, the LEL (rat [5]; [18]) was 30 mg/kg/day, the LOAEL (rat [5]; [18]) was over 30 mg/kg/day and the NEL (rat [5]; [18]) was 10 mg/kg/day. For the same compound, the NOAEL (rat [5]; [18]) was at least 30 mg/kg/day, the LEL (rat [5]; [19]) was 30 mg/kg/day and the LOAEL (rat [5]; [19]) was over 30 mg/kg/day. For the same compound, the NEL (rat [5]; [19]) was 10 mg/kg/day, the NOAEL (rat [5]; [19]) was at least 30 mg/kg/day and the LEL (rat [6]) was 30 mg/kg/day. The LOAEL (rat [6]) was over 30 mg/kg/day, the NEL (rat [6]) was 10 mg/kg/day and the NOAEL (rat [6]) was at least 30 mg/kg/day. It also gave an LOAEL (rat [7]; [20]) of over 30 mg/kg/day, an NEL (rat [7]; [20]) of 3 mg/kg/day and an NOAEL (rat [7]; [20]) of at least 30 mg/kg/day. The LEL (rat [7]; systemic / hematology / platelet / platelet + systemic / hematology / reticulocyte / reticulocyte) was 10 mg/kg/day.

Source: EPA's ToxRefDB 2
